Measured values as given in ChEMBL document CHEMBL2331359, “Ceramicines from Chisocheton ceramicus as lipid-droplets accumulation inhibitors” (Bioorg Med Chem Lett, 2013).

Key:
[1] = Cytotoxicity against mouse MC3T3-G2/PA6 cells assessed as cell viability by MTT assay; format: cell-based
[2] = Antiadipogenic activity in mouse MC3T3-G2/PA6 cells assessed as inhibition of lipid droplet accumulation after 6 days; format: functional, cell-based; conditions: MC3T3-G2/PA6, 144 h
[3] = Selectivity index, ratio of CC50 for mouse MC3T3-G2/PA6 cells to IC50 for inhibition of lipid droplet accumulation in mouse MC3T3-G2/PA6 cells; format: functional

With `CCO[C@@H]1[C@@H]2OC[C@]3(C)C=CC(=O)[C@](C)([C@H]4CC[C@]5(C)C(=CC[C@H]5c5ccoc5)[C@@]41C)[C@@H]23` the CC50 [1] was 20.6 µM, the IC50 [2] was 7.7 µM and the “Ratio CC50/IC50” value [3] was 2.7.

For `COCO[C@@H]1[C@@H]2OC[C@]3(C)C=CC(=O)[C@](C)([C@H]4CC[C@]5(C)C(=CC[C@H]5c5ccoc5)[C@@]41C)[C@@H]23`, the CC50 [1] was 19.7 µM, the IC50 [2] was 8.5 µM and the “Ratio CC50/IC50” value [3] was 2.3.

For `CC(=O)O[C@@H]1[C@@H]2OC[C@]3(C)C=CC(=O)[C@](C)([C@H]4CC[C@]5(C)C(=CC[C@H]5c5ccoc5)[C@@]41C)[C@@H]23`, the CC50 [1] was 26.2 µM, the IC50 [2] was 8.8 µM and the “Ratio CC50/IC50” value [3] was 3.

For `C[C@]12C3=CC[C@@H](c4ccoc4)[C@]3(C)CC[C@@H]1[C@@]1(C)C(=O)C=C[C@@]3(C)CO[C@@H]([C@H]2OC(=O)C(F)(F)F)[C@H]13`, the CC50 [1] was 13.7 µM, the IC50 [2] was 7.3 µM and the “Ratio CC50/IC50” value [3] was 1.9.

With `C[C@]12C3=CC[C@@H](c4ccoc4)[C@]3(C)CC[C@@H]1[C@@]1(C)C(=O)C=C[C@@]3(C)CO[C@@H]([C@H]2OC(=O)c2ccccc2)[C@H]13` the CC50 [1] was > 50 µM and the IC50 [2] was > 50 µM.

For `C[C@]12C3=CC[C@@H](c4ccoc4)[C@]3(C)CC[C@@H]1[C@@]1(C)C(=O)C=C[C@@]3(C)CO[C@@H]([C@H]2OC(=O)c2ccncc2)[C@H]13`, the CC50 [1] was 17.2 µM, the IC50 [2] was 18.7 µM and the “Ratio CC50/IC50” value [3] was 0.9.

With `C[C@]12CCC(=O)[C@]3(C)[C@H]4CC[C@]5(C)C(=CCC5C5CCOC5)[C@]4(C)[C@H](O)[C@H](OC1)[C@@H]23` (stereo partly specified) the CC50 [1] was > 50 µM and the IC50 [2] was > 50 µM.

In the case of `C[C@@]12C(=O)C=C[C@@]3(C)COC(=C[C@@]4(C)C5=CC[C@@H](c6ccoc6)[C@]5(C)CC[C@H]14)[C@H]23`, the CC50 [1] is reported as > 50 µM, the IC50 [2] is reported as 29.5 µM and the “Ratio CC50/IC50” value [3] is reported as >1.7.

With `C[C@@]12CCC(O)[C@@]3(C)[C@H]1[C@@H](OC2)[C@@H](O)[C@@]1(C)C2=CC[C@@H](c4ccoc4)[C@]2(C)CC[C@@H]13` (stereo partly specified) the CC50 [1] was > 50 µM, the IC50 [2] was 20.8 µM and the “Ratio CC50/IC50” value [3] was >2.4.

With `CC(=O)O[C@H]1[C@@H](O)[C@@]2(C)C3=CC[C@@H](c4ccoc4)[C@]3(C)CC[C@@H]2[C@@]2(C)C(=O)[C@H]3O[C@H]3[C@]3(CO3)[C@H]12` [CERAMICINE E] the CC50 [1] was 48.4 µM, the IC50 [2] was 44.1 µM and the “Ratio CC50/IC50” value [3] was 1.1.

In the case of `C[C@@]1(C=O)C=CC(=O)[C@]2(C)[C@H]3CC[C@]4(C)C(=CC[C@H]4c4ccoc4)[C@]3(C)[C@H](O)[C@H](O)[C@@H]12` [CERAMICINE F], the CC50 [1] is reported as 25 µM, the IC50 [2] is reported as 22.4 µM and the “Ratio CC50/IC50” value [3] is reported as 1.1.

For `COC(=O)[C@]1(C)C=CC(=O)[C@]2(C)[C@H]3CC[C@]4(C)C(=CC[C@H]4c4ccoc4)[C@]3(C)[C@H](O)[C@H](O)[C@H]21` [CERAMICINE G], the CC50 [1] was 72.9 µM, the IC50 [2] was 38.4 µM and the “Ratio CC50/IC50” value [3] was 1.9.

For `C/C=C(\C)C(=O)O[C@H]1C[C@H]2[C@](C)(C3=CC[C@@H](c4ccoc4)[C@@]31C)[C@H](O)[C@@H]1OC[C@]3(C)C=CC(=O)[C@@]2(C)[C@@H]13` [CERAMICINE H], the CC50 [1] was > 50 µM and the IC50 [2] was > 50 µM.

With `CC(=O)O[C@H]1C[C@H]2[C@](C)(C3=CC[C@@H](c4ccoc4)[C@@]31C)[C@H](O)[C@@H]1OC[C@]3(C)C=CC(=O)[C@@]2(C)[C@@H]13` [CERAMICINE I] the CC50 [1] was > 50 µM, the IC50 [2] was 41 µM and the “Ratio CC50/IC50” value [3] was >1.2.

In the case of `C[C@@]12CC[C@@H]3[C@@]4(C)C(=O)C=C[C@@]5(C)CO[C@@H]([C@@H](O)[C@@]3(C)[C@@H]1C(=O)C[C@H]2c1ccoc1)[C@H]45` [CERAMICINE J], the CC50 [1] is reported as > 50 µM and the IC50 [2] is reported as > 50 µM.

In the case of `CC(=O)O[C@H]1C=CC(=O)[C@@]2(C)[C@H]1[C@@H](O)[C@@H](O)[C@@]1(C)C3=CC[C@@H](c4ccoc4)[C@]3(C)CC[C@H]21` [CERAMICINE K], the CC50 [1] is reported as > 50 µM and the IC50 [2] is reported as > 50 µM.

For `C[C@]12C3=CC[C@@H](c4ccoc4)[C@]3(C)CC[C@@H]1[C@@]1(C)C(=O)C=C[C@@](C)(O)[C@@H]1[C@@H](O)[C@H]2O` [CERAMICINE L], the CC50 [1] was > 50 µM and the IC50 [2] was > 50 µM.

With `CC(=O)O[C@@H]1[C@H]2[C@@H](O)C=CC(=O)[C@]2(C)[C@H]2CC[C@]3(C)C(=CC[C@H]3c3ccoc3)[C@]2(C)[C@@H]1O` [CERAMICINES A] the CC50 [1] was 30.7 µM, the IC50 [2] was 6.2 µM and the “Ratio CC50/IC50” value [3] was 5.

For `C[C@]12C3=CC[C@@H](c4ccoc4)[C@]3(C)CC[C@@H]1[C@@]1(C)C(=O)C=C[C@@]3(C)CO[C@@H]([C@H]2O)[C@H]13` [CERAMICINES B], the CC50 [1] was 15.9 µM, the IC50 [2] was 1.8 µM and the “Ratio CC50/IC50” value [3] was 8.8.

With `C=C(C)C(=O)O[C@H]1C[C@H]2[C@](C)(C3=CC[C@@H](c4ccoc4)[C@@]31C)[C@H](O)[C@@H]1OC[C@]3(C)C=CC(=O)[C@@]2(C)[C@@H]13` [CERAMICINES C] the CC50 [1] was 21.9 µM, the IC50 [2] was 19.1 µM and the “Ratio CC50/IC50” value [3] was 1.2.

In the case of `C[C@]12C3=CC[C@@H](C4=CCOC4=O)[C@]3(C)CC[C@@H]1[C@@]1(C)C(=O)C=C[C@@]3(C)CO[C@@H]([C@H]2O)[C@H]13` [CERAMICINES D], the CC50 [1] is reported as > 50 µM and the IC50 [2] is reported as > 50 µM.
